Results as given in patent US20250129430A1, “HIGH ATP-AFFINITY PROTEIN AS THERAPEUTIC TARGET FOR INTRACTABLE CANCER MOLECULAR SUBTYPES AND INHIBITOR THEREOF” (VeraVerse Co., Ltd., priority 2021, published 2025).

What was measured:
Type in all cases: cell-based, human
Hs746T = assay: Cell viability drug screen, 12-point dose-response AUC; conditions: 72 hours; for area under the viability curve (AUC), normalized: Hs746T cells, 12-point dose-response
In short: (§1)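 Luminescent viability readings, taken 15 min after reagent addition at room temperature, were normalized to the 0.5% DMSO control to build 12-point dose-response curves. Trapezoidal integration gave the AUC. Cells had been plated at 5×10^3 per well and then exposed to half-log dilutions for 72 h.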

SNU1967 = assay: as above; conditions: SNU1967 cells, 72 hours; for area under the viability curve (AUC), normalized: 12-point dose-response
In short: as §1

AGS = assay: as above; conditions: 72 hours; for area under the viability curve (AUC), normalized: AGS cells, 12-point dose-response
In short: as §1

SNU668 = assay: as above; conditions: 72 hours; for area under the viability curve (AUC), normalized: SNU668 cells, 12-point dose-response
In short: as §1

SNU16 = assay: as above; conditions: SNU16 cells, 72 hours; for area under the viability curve (AUC), normalized: 12-point dose-response
In short: as §1

SNU1 = assay: as above; conditions: SNU1 cells, 72 hours; for area under the viability curve (AUC), normalized: 12-point dose-response
In short: as §1

SK4 = assay: as above; conditions: 72 hours; for area under the viability curve (AUC), normalized: SK4 cells, 12-point dose-response
In short: as §1

NCC19 = assay: as above; conditions: NCC19 cells, 72 hours; for area under the viability curve (AUC), normalized: 12-point dose-response
In short: as §1

NCI_N87 = assay: as above; conditions: NCI_N87 cells, 72 hours; for area under the viability curve (AUC), normalized: 12-point dose-response
In short: as §1

SNU601 = assay: as above; conditions: SNU601 cells, 72 hours; for area under the viability curve (AUC), normalized: 12-point dose-response
In short: as §1

KATO3 = assay: as above; conditions: KATO3 cells, 72 hours; for area under the viability curve (AUC), normalized: 12-point dose-response
In short: as §1

NCC59 = assay: as above; conditions: NCC59 cells, 72 hours; for area under the viability curve (AUC), normalized: 12-point dose-response
In short: as §1

SNU484 = assay: as above; conditions: 72 hours; for area under the viability curve (AUC), normalized: SNU484 cells, 12-point dose-response
In short: as §1

YCC3 = assay: as above; conditions: YCC3 cells, 72 hours; for area under the viability curve (AUC), normalized: 12-point dose-response
In short: as §1

OCUM1 = assay: as above; conditions: OCUM1 cells, 72 hours; for area under the viability curve (AUC), normalized: 12-point dose-response
In short: as §1

NCC24 = assay: as above; conditions: NCC24 cells, 72 hours; for area under the viability curve (AUC), normalized: 12-point dose-response
In short: as §1

YCC2 = assay: as above; conditions: YCC2 cells, 72 hours; for area under the viability curve (AUC), normalized: 12-point dose-response
In short: as §1

SNU638 = assay: as above; conditions: SNU638 cells, 72 hours; for area under the viability curve (AUC), normalized: 12-point dose-response
In short: as §1

MKN28 = assay: as above; conditions: MKN28 cells, 72 hours; for area under the viability curve (AUC), normalized: 12-point dose-response
In short: as §1

MKN45 = assay: as above; conditions: 72 hours; for area under the viability curve (AUC), normalized: MKN45 cells, 12-point dose-response
In short: as §1

SNU719 = assay: as above; conditions: SNU719 cells, 72 hours; for area under the viability curve (AUC), normalized: 12-point dose-response
In short: as §1

NCC20 = assay: as above; conditions: NCC20 cells, 72 hours; for area under the viability curve (AUC), normalized: 12-point dose-response
In short: as §1

YCC11 = assay: as above; conditions: 72 hours; for area under the viability curve (AUC), normalized: YCC11 cells, 12-point dose-response
In short: as §1

SNU1750 = assay: as above; conditions: 72 hours; for area under the viability curve (AUC), normalized: SNU1750 cells, 12-point dose-response
In short: as §1

SNU216 = assay: as above; conditions: 72 hours; for area under the viability curve (AUC), normalized: SNU216 cells, 12-point dose-response
In short: as §1

MKN1 = assay: as above; conditions: MKN1 cells, 72 hours; for area under the viability curve (AUC), normalized: 12-point dose-response
In short: as §1

MKN74 = assay: as above; conditions: MKN74 cells, 72 hours; for area under the viability curve (AUC), normalized: 12-point dose-response
In short: as §1

SNU620 = assay: as above; conditions: SNU620 cells, 72 hours; for area under the viability curve (AUC), normalized: 12-point dose-response
In short: as §1

[1] = tested on: non-SEM-type gastric cancer cell line; assay: Cell viability drug screen, AUC summary over non-SEM-type lines; conditions: in the non-SEM-type gastric cancer cell line
FU97 = assay: Cell viability drug screen, 12-point dose-response AUC; set-up: Average Area Under the Viability Curve (AUC), AUC norm value: scale not given here; conditions: FU97 cells, 72 hours; for area under the viability curve (AUC), normalized: 12-point dose-response
In short: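 Trapezoidal AUC of a 12-point, DMSO-normalized dose-response curve. Luminescent viability was measured after 72 h of exposure at 37° C to half-log serial dilutions (0.5% DMSO control), dosed 24 h after plating FU97 cells at 5×10^3 per well.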

[2] = tested on: SEM-type gastric cancer cell line; assay: Cell viability drug screen, AUC summary over SEM-type lines
Experimental: An FDA-approved small-molecule pharmacological compound (#L1300) and an anticancer compound for research (#L2000) were purchased from Selecckchem and a 10 mM solution was prepared in DMSO. A total of 1,345 compounds were tested the cell viability of the seven EMT gastric cancer cell lines.
Cells cultured for cell-based drug assay were inoculated into a 96-well white optical plate (Corning) at 5×10^3 cells per well. After 24 hours after inoculation, a 2.5 MJT (primary screen) or a half-log 12-serial diluent (secondary screen) of the pharmacological compound contained in DMSO is added to the cells with a robot using a BioMek FXp liquid processor (Beckman) to add to the cells at 50 mM. The final drug concentration in the 5 ns range and the DMSO specification control (0.5%) were calculated. The cells were then further incubated at 37° C. in a 5% CO2 incubator for 72 hours prior to measuring cell viability using the extra-GLO assay kit (Promega). The luminescent properties were measured after 15 min incubation at room temperature using a plate stacker equipped with a plate stacker. The normalized viability for the DMSO-based control was measured to generate a cell line-specific 12-point dose-response curve for each pharmacological compound, and then the area under the curve (AUC) was calculated using a trapezoidal method.

## Nc1ccc(-c2ccc3ncc4ccc(=O)n(-c5cccc(C(F)(F)F)c5)c4c3c2)cn1 [Torin, Torin 2]
Hs746T
  area under the viability curve (AUC), normalized: −0.7581
SNU1967
  area under the viability curve (AUC), normalized: −0.557
AGS
  area under the viability curve (AUC), normalized: −1.701
SNU668
  area under the viability curve (AUC), normalized: 0.4391
SNU16
  area under the viability curve (AUC), normalized: 0.9803
SNU1
  area under the viability curve (AUC), normalized: 1.392
SK4
  area under the viability curve (AUC), normalized: −2.722
NCC19
  area under the viability curve (AUC), normalized: 1.614
NCI_N87
  area under the viability curve (AUC), normalized: 0.3078
SNU601
  area under the viability curve (AUC), normalized: 0.4104
KATO3
  area under the viability curve (AUC), normalized: 2.66
NCC59
  area under the viability curve (AUC), normalized: 1.584
SNU484
  area under the viability curve (AUC), normalized: −0.505
YCC3
  area under the viability curve (AUC), normalized: 1.399
OCUM1
  area under the viability curve (AUC), normalized: −0.1127
NCC24
  area under the viability curve (AUC), normalized: 0
YCC2
  area under the viability curve (AUC), normalized: −0.06527
SNU638
  area under the viability curve (AUC), normalized: 0.3739
MKN28
  area under the viability curve (AUC), normalized: 0.8861
MKN45
  area under the viability curve (AUC), normalized: 0.6704
SNU719
  area under the viability curve (AUC), normalized: 3.841
NCC20
  area under the viability curve (AUC), normalized: −1.598
YCC11
  area under the viability curve (AUC), normalized: −2.299
SNU1750
  area under the viability curve (AUC), normalized: −0.787
SNU216
  area under the viability curve (AUC), normalized: −0.4964
MKN1
  area under the viability curve (AUC), normalized: −1.574
MKN74
  area under the viability curve (AUC), normalized: −0.1868
SNU620
  area under the viability curve (AUC), normalized: 0.3965
[1]
  AUC value: high
FU97
  area under the viability curve (AUC), normalized: −1.526
[2]
  normalized viability AUC: negative

## Cc1cnc(NC(=O)Nc2cc(Br)c(C)cc2OC[C@@H]2CNCCO2)cn1 [LY2603618]
Hs746T
  area under the viability curve (AUC), normalized: −0.107
SNU1967
  area under the viability curve (AUC), normalized: −0.9616
AGS
  area under the viability curve (AUC), normalized: −0.3593
SNU668
  area under the viability curve (AUC), normalized: 0.1713
SNU16
  area under the viability curve (AUC), normalized: 1.467
SNU1
  area under the viability curve (AUC), normalized: −0.3399
SK4
  area under the viability curve (AUC), normalized: −1.698
NCC19
  area under the viability curve (AUC), normalized: 1.2209
NCI_N87
  area under the viability curve (AUC), normalized: 0.8771
SNU601
  area under the viability curve (AUC), normalized: 0.2367
KATO3
  area under the viability curve (AUC), normalized: 1.256
NCC59
  area under the viability curve (AUC), normalized: 0.9326
SNU484
  area under the viability curve (AUC), normalized: 0.3141
YCC3
  area under the viability curve (AUC), normalized: 0.2305
OCUM1
  area under the viability curve (AUC), normalized: −0.6831
NCC24
  area under the viability curve (AUC), normalized: −1.445
YCC2
  area under the viability curve (AUC), normalized: 0.04045
SNU638
  area under the viability curve (AUC), normalized: −0.05048
MKN28
  area under the viability curve (AUC), normalized: −0.1902
MKN45
  area under the viability curve (AUC), normalized: −0.9472
SNU719
  area under the viability curve (AUC), normalized: 2.404
NCC20
  area under the viability curve (AUC), normalized: 0.01673
YCC11
  area under the viability curve (AUC), normalized: −2.027
SNU1750
  area under the viability curve (AUC), normalized: −0.4819
SNU216
  area under the viability curve (AUC), normalized: 0.2462
MKN1
  area under the viability curve (AUC), normalized: −1.023
MKN74
  area under the viability curve (AUC), normalized: −0.9084
SNU620
  area under the viability curve (AUC), normalized: 0
[1]
  AUC value: high
FU97
  area under the viability curve (AUC), normalized: 0.7111
[2]
  normalized viability AUC: negative

## Cn1c(=O)n(-c2ccc(C(C)(C)C#N)cc2)c2c3cc(-c4cnc5ccccc5c4)ccc3ncc21 [BEZ235 (NVP-BEZ235), BEZ235]
Hs746T; Hs746T cells (SEM subtype)
  Average Area Under the Viability Curve (AUC), AUC norm value: −0.9926
SNU1967
  Average Area Under the Viability Curve (AUC), AUC norm value: −0.17
AGS; AGS cells (non-SEM subtype)
  Average Area Under the Viability Curve (AUC), AUC norm value: −1.768
SNU668; SNU668 cells (SEM subtype)
  Average Area Under the Viability Curve (AUC), AUC norm value: 1.258
SNU16
  Average Area Under the Viability Curve (AUC), AUC norm value: −0.9859
SNU1
  Average Area Under the Viability Curve (AUC), AUC norm value: −1.128
SK4; SK4 cells (SEM subtype)
  Average Area Under the Viability Curve (AUC), AUC norm value: −3.142
NCC19
  Average Area Under the Viability Curve (AUC), AUC norm value: 0.9022
NCI_N87
  Average Area Under the Viability Curve (AUC), AUC norm value: 0.7505
SNU601
  Average Area Under the Viability Curve (AUC), AUC norm value: 2.66
KATO3
  Average Area Under the Viability Curve (AUC), AUC norm value: 2.717
NCC59
  Average Area Under the Viability Curve (AUC), AUC norm value: 2.997
SNU484; SNU484 cells (SEM subtype)
  Average Area Under the Viability Curve (AUC), AUC norm value: 0
YCC3
  Average Area Under the Viability Curve (AUC), AUC norm value: 0.9008
OCUM1
  Average Area Under the Viability Curve (AUC), AUC norm value: −0.3719
NCC24
  Average Area Under the Viability Curve (AUC), AUC norm value: 0.08486
YCC2
  Average Area Under the Viability Curve (AUC), AUC norm value: 0.6403
SNU638
  Average Area Under the Viability Curve (AUC), AUC norm value: 0.8979
MKN28
  Average Area Under the Viability Curve (AUC), AUC norm value: 2.007
MKN45; MKN45 cells (non-SEM subtype)
  Average Area Under the Viability Curve (AUC), AUC norm value: 1.887
SNU719
  Average Area Under the Viability Curve (AUC), AUC norm value: 5.119
NCC20
  Average Area Under the Viability Curve (AUC), AUC norm value: −1.542
YCC11; YCC11 cells (SEM subtype)
  Average Area Under the Viability Curve (AUC), AUC norm value: −2.698
SNU1750; SNU1750 cells (SEM subtype)
  Average Area Under the Viability Curve (AUC), AUC norm value: −1.129
SNU216; SNU216 cells (non-SEM subtype)
  Average Area Under the Viability Curve (AUC), AUC norm value: −0.6351
MKN1
  Average Area Under the Viability Curve (AUC), AUC norm value: −0.845
MKN74
  Average Area Under the Viability Curve (AUC), AUC norm value: 0.02041
SNU620
  Average Area Under the Viability Curve (AUC), AUC norm value: −0.6893
[1]
  AUC value: high
FU97
  Average Area Under the Viability Curve (AUC), AUC norm value: −2.382
[2]
  normalized viability AUC: negative
